From ChEMBL document CHEMBL1201862, “PubChem BioAssay data set” (2004)
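Growth conditions: 96-well plates. Treatment: test compound, 48 hours, 5 concentrations. Analysis: linear interpolation between bracketing concentrations; unreached endpoints set to highest concentration. Here, GI50 denotes the concentration required for 50% inhibition of growth.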 Activity calls are given as the source filed them. Rule as the data show it: active = GI50 up to about 1.1 µM and inactive = higher.

Tests used:
Test in all cases: DTP human tumour cell line panel, 48 h
[1] = test system: OVCAR-3
[2] = test system: SW-620
[3] = test system: 786-0
[4] = test system: A549
[5] = test system: OVCAR-4
[6] = test system: Malme-3M
[7] = test system: KM12
[8] = test system: SK-MEL-28
[9] = test system: SF-295
[10] = test system: OVCAR-8
[11] = test system: CAKI-1
[12] = test system: SNB-75
[13] = test system: SK-MEL-5
[14] = test system: LOX IMVI
[15] = test system: UACC-257
[16] = test system: MDA-MB-231
[17] = test system: HCT-116
[18] = test system: SF-539
[19] = test system: SK-OV-3
[20] = test system: Hs-578T

Structure (SMILES)	GI50 [1]	GI50 [2]	GI50 [3]	GI50 [4]	GI50 [5]	GI50 [6]	GI50 [7]	GI50 [8]	GI50 [9]	GI50 [10]	GI50 [11]	GI50 [12]	GI50 [13]	GI50 [14]	GI50 [15]	GI50 [16]	GI50 [17]	GI50 [18]	GI50 [19]	GI50 [20]
COC1(OC)C(/C(N)=C\O)=NC(C)(C)N1O	29.9 µM (inactive)	> 100 µM (inactive)	> 100 µM (inactive)	> 100 µM (inactive)	> 100 µM (inactive)	> 100 µM (inactive)	> 100 µM (inactive)	> 100 µM (inactive)	> 100 µM (inactive)	> 100 µM (inactive)	> 100 µM (inactive)	66.2 µM (inactive)	71.6 µM (inactive)	> 100 µM (inactive)	> 100 µM (inactive)	> 100 µM (inactive)	> 100 µM (inactive)	> 100 µM (inactive)	–	–
COc1ccc2c(c1)CCN=C2c1ccccc1CCCCl	46.1 µM (inactive)	> 100 µM (inactive)	38.4 µM (inactive)	24.2 µM (inactive)	13.7 µM (inactive)	–	14.9 µM (inactive)	> 100 µM (inactive)	20.5 µM (inactive)	16.8 µM (inactive)	24.4 µM (inactive)	17.3 µM (inactive)	4.99 µM (inactive)	–	23.7 µM (inactive)	19 µM (inactive)	18.2 µM (inactive)	18.6 µM (inactive)	31.5 µM (inactive)	16.5 µM (inactive)
C=CCOC(OCC=C)/C(Br)=C/C	47.1 µM (inactive)	37.5 µM (inactive)	11.2 µM (inactive)	> 100 µM (inactive)	24.5 µM (inactive)	–	> 100 µM (inactive)	> 100 µM (inactive)	> 100 µM (inactive)	17.7 µM (inactive)	16.7 µM (inactive)	> 100 µM (inactive)	37 µM (inactive)	16.5 µM (inactive)	> 100 µM (inactive)	> 100 µM (inactive)	13.5 µM (inactive)	–	> 100 µM (inactive)	26.8 µM (inactive)
OC(c1ccccc1)c1c(-c2ccccc2)oc(-c2ccccc2)c1C(O)c1ccccc1 (configuration not stated)	5.73 µM (inactive)	14.7 µM (inactive)	9.06 µM (inactive)	5.73 µM (inactive)	< 0.01 µM (active)	12.3 µM (inactive)	7.24 µM (inactive)	14.2 µM (inactive)	15.1 µM (inactive)	–	15.2 µM (inactive)	–	11.4 µM (inactive)	11.1 µM (inactive)	–	–	5.65 µM (inactive)	16.7 µM (inactive)	14.7 µM (inactive)	13.5 µM (inactive)
COc1ccc(N[C@H](C[S+]([O-])c2ccc(C)cc2)C(F)(F)F)cc1 (some centres not stated)	> 100 µM (inactive)	> 100 µM (inactive)	> 100 µM (inactive)	> 100 µM (inactive)	> 100 µM (inactive)	> 100 µM (inactive)	> 100 µM (inactive)	> 100 µM (inactive)	> 100 µM (inactive)	> 100 µM (inactive)	> 100 µM (inactive)	> 100 µM (inactive)	> 100 µM (inactive)	> 100 µM (inactive)	> 100 µM (inactive)	> 100 µM (inactive)	> 100 µM (inactive)	> 100 µM (inactive)	> 100 µM (inactive)	–
COC(=O)C(C)(NC(=O)C(CC(=O)OC(C)(C)C)NC(=O)OC(C)(C)C)c1ccccc1 (configuration not stated)	49.8 µM (inactive)	> 100 µM (inactive)	> 100 µM (inactive)	> 100 µM (inactive)	–	40 µM (inactive)	> 100 µM (inactive)	> 100 µM (inactive)	81.8 µM (inactive)	> 100 µM (inactive)	> 100 µM (inactive)	8.13 µM (inactive)	68.4 µM (inactive)	> 100 µM (inactive)	> 100 µM (inactive)	> 100 µM (inactive)	> 100 µM (inactive)	> 100 µM (inactive)	> 100 µM (inactive)	> 100 µM (inactive)
O=c1oc2ccccc2n1CCN1CCCCC1	> 100 µM (inactive)	> 100 µM (inactive)	> 100 µM (inactive)	–	–	> 100 µM (inactive)	> 100 µM (inactive)	> 100 µM (inactive)	> 100 µM (inactive)	> 100 µM (inactive)	> 100 µM (inactive)	> 100 µM (inactive)	> 100 µM (inactive)	> 100 µM (inactive)	> 100 µM (inactive)	> 100 µM (inactive)	> 100 µM (inactive)	> 100 µM (inactive)	> 100 µM (inactive)	> 100 µM (inactive)
CC(=O)Oc1ccc2c(c1)CC[C@@H]1C2[C@@H](O[N+](=O)[O-])C[C@@]2(C)C1CC[C@@H]2O[N+](=O)[O-] (some centres not stated)	13.2 µM (inactive)	16.1 µM (inactive)	14.5 µM (inactive)	13.2 µM (inactive)	16.3 µM (inactive)	13.7 µM (inactive)	14.1 µM (inactive)	14.5 µM (inactive)	10.7 µM (inactive)	14.6 µM (inactive)	19.3 µM (inactive)	13.5 µM (inactive)	9.75 µM (inactive)	13.7 µM (inactive)	11.1 µM (inactive)	–	10.2 µM (inactive)	18.2 µM (inactive)	–	19.1 µM (inactive)
COc1ccc2c(=O)c3c([nH]c2c1)OCC3=O	–	> 100 µM (inactive)	> 100 µM (inactive)	–	> 100 µM (inactive)	–	> 100 µM (inactive)	> 100 µM (inactive)	> 100 µM (inactive)	> 100 µM (inactive)	> 100 µM (inactive)	> 100 µM (inactive)	> 100 µM (inactive)	> 100 µM (inactive)	> 100 µM (inactive)	> 100 µM (inactive)	> 100 µM (inactive)	> 100 µM (inactive)	> 100 µM (inactive)	> 100 µM (inactive)
CCOC(=O)[C@@H]1ON2O[C@H](OC3CCCC3(c3ccccc3)c3ccccc3)C[C@H]3OC(=O)[C@@H]1C32 (some centres not stated)	40.9 µM (inactive)	28.2 µM (inactive)	78 µM (inactive)	27.8 µM (inactive)	–	–	27.9 µM (inactive)	–	> 100 µM (inactive)	35.3 µM (inactive)	22.9 µM (inactive)	71.4 µM (inactive)	75.9 µM (inactive)	27.2 µM (inactive)	52.4 µM (inactive)	36.6 µM (inactive)	73.3 µM (inactive)	65 µM (inactive)	> 100 µM (inactive)	49.4 µM (inactive)
COC(NC(=O)Nc1ccccc1C)(C(F)(F)F)C(F)(F)F	> 100 µM (inactive)	> 100 µM (inactive)	> 100 µM (inactive)	> 100 µM (inactive)	> 100 µM (inactive)	–	> 100 µM (inactive)	> 100 µM (inactive)	> 100 µM (inactive)	> 100 µM (inactive)	–	> 100 µM (inactive)	> 100 µM (inactive)	> 100 µM (inactive)	–	–	> 100 µM (inactive)	> 100 µM (inactive)	> 100 µM (inactive)	> 100 µM (inactive)
CCC/C(=N\NC(=S)N1CCN(c2ccccn2)CC1)c1ccccn1	0.0325 µM (active)	–	0.0251 µM (active)	0.118 µM (active)	0.191 µM (active)	0.0205 µM (active)	0.0146 µM (active)	0.367 µM (active)	0.00979 µM (active)	0.00314 µM (active)	0.179 µM (active)	–	0.0108 µM (active)	0.0258 µM (active)	0.00387 µM (active)	0.0311 µM (active)	0.00122 µM (active)	–	0.437 µM (active)	0.213 µM (active)
Cc1ccc(OC2CC(n3cnc4c(=O)[nH]c(Br)nc43)OC2Oc2ccc(C)cc2)cc1 (configuration not stated)	18.5 µM (inactive)	44.4 µM (inactive)	26.3 µM (inactive)	22.7 µM (inactive)	37 µM (inactive)	22.9 µM (inactive)	29 µM (inactive)	–	21.7 µM (inactive)	25.3 µM (inactive)	24.9 µM (inactive)	–	22.4 µM (inactive)	26.2 µM (inactive)	25 µM (inactive)	23 µM (inactive)	29.2 µM (inactive)	20.2 µM (inactive)	34.5 µM (inactive)	24.5 µM (inactive)
C/C(=N\Nc1nc2cc(F)ccc2s1)c1ccccn1	0.0284 µM (active)	< 0.01 µM (active)	0.0439 µM (active)	0.26 µM (active)	1.06 µM (active)	< 0.01 µM (active)	0.165 µM (active)	0.294 µM (active)	0.275 µM (active)	0.0194 µM (active)	< 0.01 µM (active)	0.661 µM (active)	0.053 µM (active)	–	< 0.0182 µM (active)	0.0389 µM (active)	< 0.0161 µM (active)	0.0906 µM (active)	0.0953 µM (active)	0.335 µM (active)
c1ccc([I+]c2ccccc2)cc1	> 100 µM (inactive)	> 100 µM (inactive)	> 100 µM (inactive)	> 100 µM (inactive)	> 100 µM (inactive)	> 100 µM (inactive)	> 100 µM (inactive)	> 100 µM (inactive)	> 100 µM (inactive)	> 100 µM (inactive)	> 100 µM (inactive)	–	> 100 µM (inactive)	> 100 µM (inactive)	> 100 µM (inactive)	> 100 µM (inactive)	> 100 µM (inactive)	> 100 µM (inactive)	> 100 µM (inactive)	> 100 µM (inactive)
